Measurements published in patent US20240336615A1, “CYCLOPROPYL-(HETERO)ARYL-SUBSTITUTED ETHYL-SULFOXIME-PYRIDINE DERIVATIVES” (Boehringer Ingelheim Vetmedica GmbH, priority 2023, published 2024).

Legend:
adult C. felis fleas [1] = experiment: Ingestion activity against adult Ctenocephalides felis, membrane feeding, alternative method (Examples 7 and 13)
Method: Selected compounds of formula (I), (Ia) and (Ib) and compound “125” of WO 2021/033141 dissolved in 100% DMSO are diluted in bovine blood with sodium heparin anti-coagulant. The resulting formulation is offered via an artificial membrane feeding system to approximately 15 adult C. felis fleas previously dispensed into 24-well plates. The plates are then incubated in a double-chambered device. Visual evaluation for mortality is performed at 48 hours post-treatment. Compound efficacy at a given dose is expressed as percentage mortality and determined by normalization to positive and negative controls. A dose response series is implemented to determine EC50 values.
Compounds of formulae (I), (Ia) and/or (Ib) dissolved in 100% DMSO are diluted in bovine blood with sodium heparin anti-coagulant. The resulting formulation is offered via an artificial membrane feeding system to approximately 15 adult C. felis fleas previously dispensed into 24-well plates. The plates are then incubated in a double-chambered device. Visual evaluation for mortality is performed at 48 hours post-treatment. Compound efficacy at a given dose is expressed as percentage mortality and determined by normalization to positive and negative controls. A dose response series is implemented to determine EC50 values.

Myzus persicae = experiment: Insecticidal test on Myzus persicae (Example 17); type: in vivo; details: 144 h, foliar application on Chinese cabbage, 6 days after application, read-out: control efficacy level (control rate)
Source text: The compounds of formula (I), (Ia) and/or (Ib) of the present invention or salts thereof are separately dispersed in water and diluted to 500 ppm and 50 ppm. Chinese cabbage plants are planted in plastic pots (diameter: 8 cm, height: 8 cm). Aphids (Myzus persicae) are propagated on the plants and then the number of surviving aphids is counted. The dispersion is applied to the foliage of the potted plants. After the plants are air dried, these are kept in a greenhouse. 6 days after the application, the number of the alive insects is counted on the plants. The control rate is calculated according to the following formula and the control efficacy is evaluated according to the following criteria. [formula] • Ta: the number of alive insects before the foliar application in a treated plot • T: the number of alive insects after the foliar application in a treated plot • Ca: the number of alive insects before the foliar application in an untreated plot • C: the number of alive insects after the foliar application in an untreated plot • A: the control rate is 100% • B: the control rate is 90 to 99% • C: the control rate is 80 to 89% • D: the control rate is 50 to 79%

Spodoptera litura = experiment: Insecticidal test on Spodoptera litura (Example 14); type: in vivo; details: foliar, 192 h, 500 ppm, cabbage leaf dip, 2nd-instar larvae, 8 days after inoculation, read-out: activity level (corrected mortality rate)
Method: The compounds of formula (I), (Ia) and/or (Ib) of the present invention or salts thereof are separately dispersed in water and diluted to 500 ppm and 50 ppm. Cabbage leaves are dipped in the dispersion for about 30 seconds. After air dried, the leaves are placed in a plastic Petri dish with a diameter of 9 cm and inoculated with ten 2nd-instar larvae of Spodoptera litura, after which the dish is closed and then allowed to stand in a room at 25° C. 8 days after the inoculation, the numbers of the dead and alive insects are counted. The corrected mortality rate is calculated according to the following formula and the insecticidal activity is evaluated according to the following criteria.
[formula] [formula] • A: the corrected mortality rate is 100% • B: the corrected mortality rate is 90 to 99% • C: the corrected mortality rate is 80 to 89% • D: the corrected mortality rate is 50 to 79%

Laodelphax striatellus = experiment: Insecticidal test on Laodelphax striatellus (Example 16); type: in vivo; details: 192 h, rice seedling dip, 3rd-instar nymphs, 8 days after inoculation, read-out: activity level (corrected mortality rate)
Method: The compounds of formula (I), (Ia) and/or (Ib) of the present invention or salts thereof are separately dispersed in water and diluted to 500 ppm and 50 ppm. Rice plant seedlings are dipped in the dispersion for about 30 seconds. After air dried, the seedlings are put into a separate glass test tube and inoculated with ten 3rd-instar nymphs of Laodelphax striatellus and then the glass test tube is kept in a room at 25° C. 8 days after the inoculation, the numbers of the dead and alive insects are counted. The corrected mortality rate is calculated according to the following formula and the insecticidal activity is evaluated according to the following criteria.

Plutella xylostella = experiment: Insecticidal test on Plutella xylostella (Example 15); type: in vivo; details: 144 h, Chinese cabbage seedling dip, 6 days after dip treatment, read-out: activity level (corrected mortality rate)
Method: The compounds of formula (I), (Ia) and/or (Ib) of the present invention or salts thereof are separately dispersed in water and diluted to 500 ppm and 50 ppm. Ten adults of Plutella xylostella are released onto Chinese cabbage seedlings and allowed to lay eggs thereon. 2 days after the release of the adults, the seedling is dipped in the dispersion for about 30 seconds. After air dried, the seedling is kept in a room at 25° C. 6 days after the dip treatment, the numbers of the dead and alive insects are counted. The corrected mortality rate is calculated according to the following formula and the insecticidal activity is evaluated according to the following criteria.

adult C. felis fleas [2] = experiment: Ingestion activity against adult Ctenocephalides felis, membrane feeding, motility (Example 6); details: 48 h, bovine blood via artificial membrane, 48h post treatment, read-out: EC50 (ingestion activity, % motility reduction)
Method: Compounds of formulae (I), (Ia) and/or (Ib) dissolved in 100% DMSO are added to bovine blood and offered via an artificial membrane feeding system to adult C. felis fleas. The motility of fleas is then visually inspected 48h post treatment. Efficacy is expressed in % motility reduction compared to controls containing blood treated with DMSO only. A dose response series is implemented to determine EC50 values.

[3] = system: adult Ctenocephalides felis fleas; experiment: Contact activity against adult Ctenocephalides felis (Example 4); details: adult C. felis, coated pipe cleaner in vial, 72 hours post-treatment, read-out: EC50 (contact activity, percentage mortality)
Method: Compounds of formulae (I), (Ia) and/or (Ib) dissolved in 100% DMSO are diluted in acetone to a desired concentration. The resulting formulation is used to coat the fibers of a 0.5-inch-long piece of pipe cleaner placed in a glass scintillation vial. The vial is capped with a rubber gasket and filter paper insert. After the acetone has evaporated, ten adult Ctenocephalides felis fleas are added to each vial. The vials are then incubated at 22° C., 80% relative humidity, and 12 hours of light/12 hours of dark until a visual evaluation for mortality is performed at 72 hours post-treatment. Compound efficacy at a given dose is expressed as percentage mortality and adjusted to remove background mortality observed in control vials containing DMSO only. A dose response series of treated vials is implemented to determine EC50 values.

[4] = Ctenocephalides felis, adult C. felis, bovine blood with sodium heparin, membrane feeding, 48 hours post-treatment, read-out: EC50 (ingestion activity, percentage mortality, alternative method)
[5] = Ctenocephalides felis, alternative method according to Example 7, mortality at 48 hours post-treatment, read-out: C. felis membrane feeding (ingestion/blood feeding) activity EC50
[6] = alternative method according to Example 7, mortality at 48 hours post-treatment, read-out: C. felis membrane feeding (ingestion/blood feeding) activity EC50

| EC50 (adult C. felis fleas [2]) [nM] | Structure (SMILES) | EC50 (adult C. felis fleas [1]; [4]) [nM] | pest or weed control at 500 ppm (Myzus persicae) [%] | mortality at 500 ppm (Laodelphax striatellus) [%] | mortality at 500 ppm (Plutella xylostella) [%] | EC50 (adult C. felis fleas [1]; [5]) [nM] | mortality at 50 ppm (Plutella xylostella) [%] | further results |
| --- | --- | --- | --- | --- | --- | --- | --- | --- |
| 1000 to 10000 | CCS(=N)(=O)c1cc(-n2cc(C3CC3)nn2)cnc1-c1nc2cc(C(F)(F)C(F)(F)F)cnc2n1C (centres unmarked) [Compound 28] | 1000 to 10000 | 100 | 100 | 100 | – | – | mortality at 500 ppm (Spodoptera litura): 100% |
| < 1000 | CCS(=N)(=O)c1cc(-c2noc(C3(F)CC3)n2)cnc1-c1nc2cc(C(F)(F)C(F)(F)F)nnc2n1C (centres unmarked) [Compound 32] | < 1000 | – | – | – | 417 | 100 | pest or weed control at 50 ppm (Myzus persicae): 100%; mortality at 50 ppm (Laodelphax striatellus): 100%; EC50 [3]: < 10000 nM |
| 1000 to 10000 | CCS(=N)(=O)c1cc(-n2cc(C3(C#N)CC3)cn2)cnc1-c1nc2cc(C(F)(F)C(F)(F)F)nnc2n1C (centres unmarked) [Compound 33] | < 1000 | – | – | – | 437 | 100 | pest or weed control at 50 ppm (Myzus persicae): 100%; mortality at 50 ppm (Laodelphax striatellus): 100% |
| – | CCS(=N)(=O)c1cc(-c2noc(C3(F)CC3)n2)cnc1-c1nc2cc(C(C)(F)F)nnc2n1C (centres unmarked) [Compound 29] | 1000 to 10000 | 100 | 100 | 100 | – | – | EC50 [3]: 10000 to 100000 nM |
| – | CC[S@@](=N)(=O)c1cc(-c2noc(C3CC3)n2)cnc1-c1nc2cc(C(F)(F)C(F)(F)F)cnc2n1C [Compound 7b, (R)-[5-(5-cyclopropyl-1,2,4-oxadiazol-3-yl)-2-[3-methyl-6-(1,1,2,2,2-pentafluoroethyl)-3H-imidazo[4,5-b]pyridin-2-yl]pyridin-3-yl](ethyl)imino-lambda6-sulfanone] | – | – | – | – | – | – | EC50 (adult C. felis fleas [1]; [6]): 1350 nM |
| 1000 to 10000 | CCS(=N)(=O)c1cc(-c2ccc(C3(C#N)CC3)cc2)cnc1-c1nc2cc(C(C)(F)F)cnc2n1C (centres unmarked) [Compound 2] | 1000 to 10000 | 100 | 100 | 100 | – | – | mortality at 500 ppm (Spodoptera litura): 100% |
| – | CCS(=N)(=O)c1cc(-c2noc(C3CC3)n2)cnc1-c1nc2cc(C(F)(F)C3CC3)cnc2n1C (centres unmarked) [Compound 12] | – | 100 | – | – | – | 100 | – |
| – | CCS(=N)(=O)c1cc(-c2noc(C3(F)CC3)n2)cnc1-c1nc2cc(C(C)(F)F)cnc2n1C (centres unmarked) [Compound 18] | – | – | – | – | – | 100 | pest or weed control at 50 ppm (Myzus persicae): 100%; mortality at 50 ppm (Laodelphax striatellus): 100% |
| – | CCS(=N)(=O)c1cc(-c2noc(C3CC3)n2)cnc1-c1nc2cc(C(F)(F)C3CC3)nnc2n1C (centres unmarked) [Compound 15] | 1000 to 10000 | 100 | 100 | 100 | – | – | – |
| – | CCS(=N)(=O)c1cc(-c2ccc(C3(C#N)CC3)cc2)cnc1-c1nc2cc(C(C)(F)F)cn(CC(F)F)c-2c1F (centres unmarked) [Compound 16] | 1000 to 10000 | – | – | – | – | – | – |
| – | CCS(=N)(=O)c1cc(-c2ccc(C3(C#N)CC3)cc2)cnc1-c1nc2cc(C(F)(F)F)cn(CC(F)F)c-2c1F (centres unmarked) [Compound 17] | < 1000 | – | – | – | 330 | – | – |
| – | CCS(=N)(=O)c1cc(-c2noc(C3CC3)n2)cnc1-c1nc2cc(C(C)(F)F)cnc2n1C (centres unmarked) [Compound 10] | – | 100 | 100 | 100 | – | – | – |
| < 1000 | CCS(=N)(=O)c1cc(-c2noc(C3(C(F)(F)F)CC3)n2)cnc1-c1nc2cc(C(F)(F)C3CC3)nnc2n1C (centres unmarked) [Compound 4] | < 1000 | – | – | – | 474 | – | EC50 [3]: 10000 to 100000 nM |
| – | CC[S@](=N)(=O)c1cc(-c2noc(C3CC3)n2)cnc1-c1nc2cc(C(F)(F)C(F)(F)F)cnc2n1C [Compound 7a, (S)-[5-(5-cyclopropyl-1,2,4-oxadiazol-3-yl)-2-[3-methyl-6-(1,1,2,2,2-pentafluoroethyl)-3H-imidazo[4,5-b]pyridin-2-yl]pyridin-3-yl](ethyl)imino-lambda6-sulfanone] | – | – | – | – | – | – | EC50 (adult C. felis fleas [1]; [6]): 385 nM |
| 1000 to 10000 | CCS(=N)(=O)c1cc(-c2ccc(C3(C#N)CC3)cc2)cnc1-n1cc2cnc(C(F)(F)F)cc2n1 (centres unmarked) [Compound 35] | < 1000 | – | – | – | 771 | – | – |
| < 1000 | CCS(=N)(=O)c1cc(-n2cc(C3(C#N)CC3)cn2)cnc1-c1nc2cc(C(F)(F)C(F)(F)F)cnc2n1C (centres unmarked) [Compound 26] | < 1000 | 100 | 100 | 100 | 875 | – | mortality at 500 ppm (Spodoptera litura): 100% |
| – | CC[SH](=N)(O)c1cc(-c2noc(C3CC3)n2)cnc1-c1nc2cc(C(F)(F)C(F)(F)F)nnc2n1C [Compound 8a] | – | – | – | – | – | – | EC50 (adult C. felis fleas [1]; [6]): 482 nM |
| < 1000 | CCS(=N)(=O)c1cc(-c2noc(C3CC3)n2)cnc1-c1nc2cc(C(C)(F)F)nnc2n1C (centres unmarked) [Compound 13] | 1000 to 10000 | – | – | – | – | 100 | pest or weed control at 50 ppm (Myzus persicae): 100%; mortality at 50 ppm (Laodelphax striatellus): 100% |
| – | CCS(=N)(=O)c1cc(-n2cc(C3CC3)cn2)cnc1-c1nc2cc(C(F)(F)C(F)(F)F)nnc2n1C (centres unmarked) [Compound 34] | – | 100 | 100 | 100 | – | – | mortality at 500 ppm (Spodoptera litura): 100%; EC50 [3]: 10000 to 100000 nM |
| < 1000 | CCS(=N)(=O)c1cc(-c2cnn(C3CC3)c2)cnc1-c1nc2cc(C(F)(F)C(F)(F)F)cnc2n1C (centres unmarked) [Compound 22] | < 1000 | – | – | – | 981 | 100 | pest or weed control at 50 ppm (Myzus persicae): 100%; mortality at 500 ppm (Spodoptera litura): 100%; mortality at 50 ppm (Laodelphax striatellus): 100%; EC50 [3]: 10000 to 100000 nM |
